Key:
mouse EP4 receptor = target: T1, mouse EP4 receptor (Mus musculus, UniProt P32240); assay: Measurement of EP4 agonist activity (cAMP concentration) in EP4-CHO cells; assay type: cell-based; settings: cAMP production, read-out: Agonist activity on various prostanoid receptors: EC50 value, EP4
T1 construct: expressed in transfected cells; host or cells: CHO (EP4-CHO)
Text: (§1) (1-1) Measurement of Agonist Activity on Various Mouse Prostanoid Receptors
(§2) Using CHO cells (FP-CHO, EP2-CHO, EP4-CHO and IP-CHO, respectively) in which various mouse prostanoid receptors were forcibly expressed, respectively, agonist activity of test compounds on various prostanoid receptors was studied employing an intracellular calcium concentration regarding FP, and an intracellular cyclic AMP (hereinafter, abbreviated as cAMP) production amount regarding IP, EP2 and EP4 as an index.
(§3) The test compound and a control substance (PGE2, PGF2α, and iroprost) were dissolved with dimethyl sulfoxide (DMSO) to prepare a 10 mmol/L solution. Regarding the prepared 10 mmol/L solution, upon use, the 10 mmol/L solution was thawed, stepwisely-diluted using DMSO, and diluted with a buffer solution for measurement or a buffer solution for measurement 2, which was subjected to an experiment.
(§4) Cells forcibly expressing various mouse prostanoid receptors were standing-cultured at 37° C. in the presence of 5% CO2 using an α-MEM medium (Sigma) (for culturing FP-CHO, EP2-CHO and EP4-CHO) containing inactivated (56° C., 30 minutes) 9.8 vol % dialysed-FBS (Invitrogen) and penicillin-streptomycin-glutamine (GIBCO-BRL), or nucleic acid-containing α-MEM (Sigma) (for culturing IP-CHO) containing inactivated (56° C., 30 minutes) 9.8 vol % dialysed-FBS (Invitrogen) and penicillin-streptomycin glutamine (Invitrogen). Subculturing was performed by the following method.
(§5) The medium was removed, and washed with a phosphate-buffered physiological saline not containing Ca^2+ and Mg^2+ once. A suitable amount of trypsin-EDTA (Invitrogen) was added, this was incubated at 37° C. for about 3 minutes, cells were peeled, and a medium having a volume which is 10-fold a volume of trypsin-EDTA was added to stop an enzymatic reaction. After cells were recovered (120 g) into a centrifuging tube, and centrifuged at room temperature for 3 minutes, the supernatant was removed. Cells were suspended in a suitable amount of a medium, and seeded in a culturing flask. […]

mouse EP2 receptor = target: T2, mouse EP2 receptor (Mus musculus, UniProt Q62053); assay: Measurement of EP2 agonist activity (cAMP concentration) in EP2-CHO cells; assay type: cell-based; settings: cAMP production, read-out: Agonist activity on various prostanoid receptors: EC50 value, EP2
T2 construct: expressed in transfected cells; host or cells: CHO (EP2-CHO)
T2 sequence (Q62053 whole entry): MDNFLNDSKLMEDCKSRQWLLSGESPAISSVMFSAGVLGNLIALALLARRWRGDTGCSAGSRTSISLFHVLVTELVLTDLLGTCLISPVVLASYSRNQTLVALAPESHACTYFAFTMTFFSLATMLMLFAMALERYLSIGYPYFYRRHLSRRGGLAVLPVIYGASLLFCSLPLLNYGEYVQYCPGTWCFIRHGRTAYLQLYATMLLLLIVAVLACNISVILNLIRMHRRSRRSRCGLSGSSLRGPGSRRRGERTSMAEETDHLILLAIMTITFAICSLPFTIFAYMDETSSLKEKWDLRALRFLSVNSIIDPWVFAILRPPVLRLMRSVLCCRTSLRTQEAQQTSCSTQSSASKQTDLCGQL
Text: as §1, §2, §3, §4, §5

mouse FP receptor = target: T3, mouse FP receptor (Mus musculus, UniProt P43117); assay: Measurement of FP agonist activity (intracellular calcium concentration) in FP-CHO cells; assay type: cell-based; settings: read-out: Agonist activity on various prostanoid receptors: EC50 value, FP
T3 construct: expressed in transfected cells; host or cells: CHO (FP-CHO)
T3 sequence (P43117 whole entry): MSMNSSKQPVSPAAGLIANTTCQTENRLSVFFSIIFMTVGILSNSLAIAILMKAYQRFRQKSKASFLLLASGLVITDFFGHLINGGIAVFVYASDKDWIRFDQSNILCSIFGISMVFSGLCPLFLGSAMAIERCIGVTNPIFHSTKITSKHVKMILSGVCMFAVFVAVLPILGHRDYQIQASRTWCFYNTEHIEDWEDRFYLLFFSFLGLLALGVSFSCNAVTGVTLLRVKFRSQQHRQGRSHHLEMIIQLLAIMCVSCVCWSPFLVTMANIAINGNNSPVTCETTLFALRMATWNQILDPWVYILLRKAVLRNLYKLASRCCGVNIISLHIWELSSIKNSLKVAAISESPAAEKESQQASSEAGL
Text: as §1, §2
as §3, with “experiment. […]” for “experiment.”
The 96-well UV plate was set in a fluorescent spectral photometer (FDSS-3000, Hamamatsu Photonics K.K.), and an intracellular calcium concentration was measured. […]

mouse IP receptor = target: T4, mouse IP receptor (Mus musculus, UniProt P43252); assay: Measurement of IP agonist activity (cAMP concentration) in IP-CHO cells; assay type: cell-based; settings: cAMP production, read-out: Agonist activity on various prostanoid receptors: EC50 value, IP
T4 construct: expressed in transfected cells; host or cells: CHO (IP-CHO)
T4 sequence (P43252 whole entry): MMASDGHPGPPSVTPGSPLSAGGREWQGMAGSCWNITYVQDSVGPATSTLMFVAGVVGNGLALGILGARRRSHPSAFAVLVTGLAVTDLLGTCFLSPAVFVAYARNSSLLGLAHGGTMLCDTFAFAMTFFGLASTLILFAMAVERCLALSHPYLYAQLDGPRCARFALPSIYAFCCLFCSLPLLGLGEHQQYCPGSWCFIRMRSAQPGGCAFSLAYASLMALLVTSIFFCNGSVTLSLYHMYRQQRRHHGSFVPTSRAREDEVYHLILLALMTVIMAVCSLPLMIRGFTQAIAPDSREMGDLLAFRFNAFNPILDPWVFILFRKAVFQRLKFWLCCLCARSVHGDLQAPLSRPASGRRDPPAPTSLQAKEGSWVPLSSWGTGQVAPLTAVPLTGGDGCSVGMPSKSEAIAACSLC
Text: as §1, §2
as §3, with “experiment. […]” for “experiment.”

male dog (TOYO Beagle) = assay: Intraocular pressure lowering action in dog after ocular instillation; assay type: in vivo; settings: ocular instillation 30 μL, maximum among 2, 4, 6, 8, 24 hours, dose 30 μg/mL Example 16 (1), 50 μg/mL latanoprost
Protocol: (2-1) Intraocular Pressure Lowering Action
To one eye of a male dog (TOYO Beagle) which had been sufficiently acclimated in advance was ocular-instilled 30 μL of the compound of Example 16 (1) which had been adjusted with a base (containing citrate buffer pH 6.5, 0.5% polysorbate 80, 1% propylene glycol, 0.01% benzalkonium chloride) to 0.003% (w/v), respectively. The other eye was not treated. As a positive control compound, latanoprost which is the known compound was used.
Thereafter, an ocular surface anesthetic (Benoxil eye drops 0.4%, Santen Pharmaceutical Co., Ltd.) was subjected to ocular instillation to locally anesthetize eyes, and an intraocular pressure of each test compound before ocular instillation and after 2, 4, 6, 8, and 24 hours from ocular instillation was measured. An intraocular pressure was measured using a pneumatic applanation flat tonometer (Model 30 Classic, REICHERT). An intraocular pressure lowering rate (%) was calculated by the following equation.

[1] = system: male monkey (crab-eating monkey); assay: Intraocular pressure lowering action in monkey under consciousness; assay type: in vivo; settings: conscious crab-eating monkey, ocular instillation 30 μL, 10 μg/mL Comparative Compound C, 30 μg/mL Example 16 (1)
Protocol: (2-3) Intraocular Pressure Lowering Action in Monkey Under Consciousness
To a left eye of a male monkey (crab-eating monkey) under consciousness was ocular instillation-administered 30 μL of a solution obtained by adjusting a test substance using the same base as that described above and, to a right eye was ocular instillation-administered 30 μL of a solution of only a base as a control, respectively. An intraocular pressure after administration was measured with time from administration initiation to after 24 hours. Upon measurement of an intraocular pressure, a crab-eating monkey was fixed on a monkey chair, and the monkey was anesthetized by ocular instillation-administering an ocular surface anesthetic (Benoxil eye drops 0.4% Santen Pharmaceutical Co., Ltd.). After mounting of a blepharostat (Handaya Co., Ltd.), an intraocular pressure of both eyes was measured (5 to 8 examples per group) using a pneumatic applanation flat tonometer (Model 30 Classic, REICHERT). A difference in an intraocular pressure value between control eyes and eyes to which a test substance had been administered, was calculated as an intraocular pressure lowering rate using the following equation, and sustainability of intraocular eye lowering action was assessed using a maximum intraocular pressure lowering rate during measurement and an intraocular pressure lowering rate after 24 hours. […]

[2] = system: male rabbit (NewZealandWhite); assay: Assessment of ocular stimulating property (Draize score) in rabbit; assay type: in vivo; settings: ocular instillation 30 μL, 1000 μg/mL, observed 0 to 8 hours (FIG. 1)
Protocol: (§6) (2-2) Assessment of Ocular Stimulating Property and Aqueous Humor Protein Concentration
To one eye of a male rabbit (NewZealandWhite, 2.0 to 3.0 kg) was ocular-instilled 30 μL of the compound of Example 16 (1) which had been adjusted to 0.1% (w/v) with a base (containing citrate buffer pH 6.5, 0.5% polysorbate 80, 1% propylene glycol, 0.01% benzalkonium chloride), respectively. Thereafter, an aqueous humor in anterior chamber after 0, 1, 2, 4, 6 and 8 hours from ocular instillation was collected, and a protein concentration in the humor was measured. […]
Observation of the ocular general state was performed after 0, 1, 2, 4, 6 and 8 hours from ocular instillation, and visual remark of cornea, iris, and conjunctiva was observed according to determination criteria of the Draize method. A total of points of the resulting assessment points of each item (=A1×B1×5+A2×5+(A3+B3+C3)×2) was assessed as a Draize score. […]
(§7) Regarding any test compound, a dose of 1000 μg/mL was administered and action of each active body was assessed.

[3] = system: male rabbit (NewZealandWhite); assay: Aqueous humor protein concentration in rabbit after ocular instillation; assay type: in vivo; settings: ocular instillation 30 μL, 1000 μg/mL, 0 to 8 hours (FIG. 2)
Protocol: as §6
To one eye of a male rabbit (NewZealandWhite, 2.0 to 3.0 kg) was ocular-instilled 30 μL of the compound of Example 16 (1) which had been adjusted to 0.1% (w/v) with a base (containing citrate buffer pH 6.5, 0.5% polysorbate 80, 1% propylene glycol, 0.01% benzalkonium chloride), respectively. Thereafter, an aqueous humor in anterior chamber after 0, 1, 2, 4, 6 and 8 hours from ocular instillation was collected, and a protein concentration in the humor was measured. As comparative compounds, the aforementioned methyl ester of the compound of Example 12 described in Patent Literature 2 (i.e. compound of Example 10 described in Patent Literature 2) (hereinafter, abbreviated as Comparative Compound C in some cases) and the aforementioned methyl ester of the Comparative Compound B (i.e. optically active body (2S isomer) of the compound of Example 1 (F) described in Patent Literature 1) (hereinafter, abbreviated as Compound D in some cases) were used.
as §7

T1 sequence (P32240 whole entry): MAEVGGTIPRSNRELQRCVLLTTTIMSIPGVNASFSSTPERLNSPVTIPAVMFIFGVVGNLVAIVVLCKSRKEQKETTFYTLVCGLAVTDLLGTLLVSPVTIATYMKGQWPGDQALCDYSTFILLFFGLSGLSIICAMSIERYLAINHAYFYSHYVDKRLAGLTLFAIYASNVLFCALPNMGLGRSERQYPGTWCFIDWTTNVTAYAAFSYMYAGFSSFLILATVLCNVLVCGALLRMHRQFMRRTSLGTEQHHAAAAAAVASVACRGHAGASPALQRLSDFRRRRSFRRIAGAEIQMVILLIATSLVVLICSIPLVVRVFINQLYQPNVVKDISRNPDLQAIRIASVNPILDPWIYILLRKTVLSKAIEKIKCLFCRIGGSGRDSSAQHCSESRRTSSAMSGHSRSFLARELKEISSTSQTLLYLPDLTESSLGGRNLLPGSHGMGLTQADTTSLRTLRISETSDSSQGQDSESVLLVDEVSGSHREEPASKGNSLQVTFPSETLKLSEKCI

Row | EC50 (mouse EP4 receptor) | EC50 (mouse EP2 receptor) | EC50 (mouse FP receptor) | EC50 (mouse IP receptor) | Compound | Maximum of intraocular pressure lowering rate (male dog (TOYO Beagle)) | Intraocular pressure lowering rate after 24 hours ([1]; 24 hours) | Maximum intraocular pressure lowering rate [1] | Classification of ocular stimulating property from maximum of the Draize score [2] | Action on protein concentration in aqueous humor [3]
1 | 6.1 µM | > 100 µM |  |  | O=C(O)CCC[C@H]1CC[C@@H]2[C@@H](/C=C/[C@@H](O)COc3ccccc3)[C@H](O)C[C@@H]2O1 [Comparative Compound A] |  |  |  |  | 
2 | 0.38 µM | 0.022 µM | 0.0089 µM | 0.89 µM | CCCCC[C@H](O)/C=C/[C@@H]1[C@H]2CC[C@H](CCCC(=O)O)S[C@H]2C[C@H]1O [Comparative Compound B, 4-{(2S,4aR,5R,6R,7aS)-6-hydroxy-5-[(1E,3S)-3-hydroxy-1-octen-1-yl]octahydrocyclopenta[b]thiopyran-2-yl}butanoic acid, reference compound] |  |  |  |  | 
3 | > 100 µM | > 100 µM | 0.0034 µM | 6.1 µM | O=C(O)CCC[C@H]1CC[C@@H]2[C@@H](/C=C/[C@@H](O)COc3ccccc3)[C@H](O)C[C@@H]2S1 [Example 15, 4-{(2S,4aR,5R,6R,7aS)-6-hydroxy-5-[(1E,3R)-3-hydroxy-4-phenoxy-1-buten-1-yl]octahydrocyclopenta[b]thiopyran-2-yl}butanoic acid] |  |  |  |  | 
4 |  |  |  |  | CC(C)OC(=O)CCC[C@H]1CC[C@@H]2[C@@H](/C=C/[C@@H](O)COc3ccccc3)[C@H](O)C[C@@H]2S1 [Example 16 (1), 2-Propanyl 4-{(2S,4aR,5R,6R,7aS)-6-hydroxy-5-[(1E,3R)-3-hydroxy-4-phenoxy-1-buten-1-yl]octahydrocyclopenta[b]thiopyran-2-yl}butanoate] | 34.2% | 23.1 ± 2.7% | 25.3 ± 2.4% | non-stimulating substance (A Draize score of 0 or more and 5 or less was a non-stimulating substance) | no action of raising a protein concentration in an aqueous humor
